Results from the NIST ThermoML archive (doi:10.1016/j.fluid.2010.03.042).

Test: xn = mol fraction of the nth substance listed
Details: Liquid, Vibrating tube method

CCCCO [butan-1-ol] + O=C=O
Details	mass density [kg/m3]
313.22 K, x2 = 0.1294	806.8
313.22 K, x2 = 0.2204	816.8
313.22 K, x2 = 0.2354	818.6
313.22 K, x2 = 0.3409	823.7
313.22 K, x2 = 0.4311	826.1
313.22 K, x2 = 0.5847	827.7
313.22 K, x2 = 0.8543	797
363.17 K, x2 = 0.1186	711.3
363.17 K, x2 = 0.1985	762
363.17 K, x2 = 0.2821	764.7
363.17 K, x2 = 0.3623	765.5
363.17 K, x2 = 0.4604	765.5
363.17 K, x2 = 0.5637	760.6
363.17 K, x2 = 0.6867	750.9
363.17 K, x2 = 0.7105	745.8
363.17 K, x2 = 0.7597	726.6

CCC(C)O (centres undefined) [butan-2-ol] + O=C=O
Details	mass density [kg/m3]
313.21 K, x2 = 0.166	795.6
313.21 K, x2 = 0.2247	807.4
313.21 K, x2 = 0.3339	813.7
313.21 K, x2 = 0.435	816.8
313.21 K, x2 = 0.5177	818.9
313.21 K, x2 = 0.6282	818.5
313.21 K, x2 = 0.7453	817.2
313.21 K, x2 = 0.7457	817.5
313.21 K, x2 = 0.8604	815.4
313.21 K, x2 = 0.9197	813.8
333.12 K, x2 = 0.137	771.6
333.12 K, x2 = 0.2174	782.3
333.12 K, x2 = 0.3029	786.1
333.12 K, x2 = 0.3944	790.2
333.12 K, x2 = 0.4533	791.8
333.12 K, x2 = 0.5642	790.7
333.12 K, x2 = 0.6485	787.2
333.12 K, x2 = 0.7937	775.5
333.12 K, x2 = 0.8376	758.6
363.06 K, x2 = 0.1273	743.6
363.06 K, x2 = 0.1978	746.7
363.06 K, x2 = 0.2588	747.7
363.06 K, x2 = 0.2793	748.3
363.06 K, x2 = 0.3584	743.8
363.06 K, x2 = 0.4344	738.3
363.06 K, x2 = 0.5565	709.3
363.06 K, x2 = 0.6978	647.2
363.06 K, x2 = 0.7871	611.7
